Test results published in ChEMBL document CHEMBL3992487 (Medchemcomm, 2016).

Tests used:
[1] = Dissociation constant, pKa of the compound; type: physicochemical
[2] = Clearance in rat blood; type: ADME
[3] = Oral bioavailability in rat; type: ADME, organism-based; details: in vivo
[4] = Intrinsic clearance in human liver microsomes; type: ADME, microsome; details: read-out: CLH
[5] = Intrinsic clearance in human hepatocytes assessed per million cells; type: ADME, cell-based, Hepatocyte; details: read-out: CLH

pKa [1]	clearance [2] [mL/min/kg]	bioavailability [3] [%]	microsomal CLint [4] [µL/min/mg]	hepatocyte CLint [5] [µL/min/1e6 cells]	Compound
7.1	–	–	–	–	COC[C@@](C)(N)c1nc(-c2ccc(OC(F)(F)F)cc2)c[nH]1
6.4	–	–	–	–	C[C@](N)(CF)c1nc(-c2ccc(OC(F)(F)F)cc2)c[nH]1
6.4	5	49 to 52	–	–	NC1(Cc2nc(-c3ccc(OC(F)(F)F)cc3)c[nH]2)COC1
5.9	–	–	–	–	NC(CF)(CF)c1nc(-c2ccc(OC(F)(F)F)cc2)c[nH]1
7.9	–	–	8	< 6	CC(C)(N)c1nc(-c2ccc(OC(F)(F)F)cc2)c[nH]1
